The test system of data set [1] is insulin-activated insulin receptor. The conditions noted are these: cited from earlier work.
Data set [2] relates to male Sprague Dawley rats. The conditions noted are these: rat, in vivo.
Protocol: (§1) Four week old male Sprague Dawley rats were allowed to fed ad libitum on a commercial rat food and tap water. Rats were raised in standard plastic and stainless steel cages on a 12 hour light-dark cycle. Solid food intake and body mass were monitored daily. Twenty four rats were divided randomly into three groups of eight. […] The last group was injected with 200 μL of doubly deionized water daily and served as the control. After 12 weeks, the animals were sacrificed by carbon dioxide asphyxiation. Liver, kidney, heart, pancreas, testes, and epididymal fat were quickly harvested and weighed. Liver and kidney were placed into plastic screw-top containers and stored at -80° C. for further analysis.
The subject of data set [3] is male Sprague Dawley rats. Description: 12-week chromium supplementation of rats: body and tissue masses, toxic effects.
Protocol: as §1
For data set [4], the system named is pUC19 plasmid DNA.
Protocol: The reactions contain pUC19 (39 μM in base pairs) and 50 μM phosphate buffer, pH 7.0, and: Lane 2, 5 MM ascorbate; Lanes 3-7, 5 mM ascorbate and 120, 40, 4.0, 0.40, and 0.040 μM 1, respectively; Lane 8, 5 mM ascorbate and 1.2 μM Cr(pic)3 ; Lane 9, 5 mM ascorbate and 120 pM 1 under argon; Lane 10, 5 mM ascorbate, 120 μM 1, and 1 M EtOH; Lane 11, 5 mM ascorbate, 120 μM 1, and 1 M t-BuOH; Lane 12, 5 mM ascorbate, 120 μM 1, and 100 μg/mL SOD; and Lane 13, 5 mM ascorbate, 120 μl , and 100 μ/mL catalase. Reactions were allowed to proceed 60 minutes before quenching.
A typical reaction was carried out mixing aliquots of pUC19 (in 5 μM Tris, 500 EDTA buffer (pH 8.0)), reductant in H2 O, LMWCr in 50 mM NH4 OAc (pH 6.5) or 1 in H2 O, phosphate buffer (pH 7.0), and H2 O to give a final volume of 15 μL; the final phosphate concentration was 50 mM. Inhibitors were added as solutions in H2 O, solutions in phosphate buffer, or as neat liquids. Reactions were allowed to proceed 180 minutes unless otherwise noted. All reactions were quenched by addition of loading buffer (24% glycerol and 0.1% bromophenol blue). Seven microliter aliquots were loaded directly onto a 1% agarose gel and electrophoresed at 60 V. The gel was stained with ethidium bromide and was photographed on a UV transilluminator. […]
Data set [5] relates to male Sprague Dawley rats. Description: Plasma variables after 4, 8 and 12 weeks of supplementation. Format: in vivo, rat. The procedure: Solid food intake and body mass were monitored daily.
Blood was collected from the tail after four, eight, and twelve weeks of Cr or H2 O administration. Prior to blood collection, animals were fasted 12 to 15 hours.
Immediately after blood removal, 0.5 mg/mL heparin and 10 mg/mL NaF were added to the blood. Blood was next immediately centrifuged; the blood plasma was tested for glucose, total cholesterol, triglycerides, low density lipoprotein (LDL) cholesterol (week 12 only), and high density lipoprotein (HDL) cholesterol (week 12 only) using Diagnostic Kits from Sigma Chemical Co. (St. Louis, Mo.) and insulin using double antibody or antibody coated kits from ICN Biomedicals (Costa Mesa, Calif.).
Statistical analyses were performed by analysis of variance. All values are presented as mean±SEM. P values are calculated using standard deviations.

Data set [6] concerns pUC19 plasmid DNA. The conditions noted are these: cited from earlier work.
The next data set concerns DH5α E. coli cells. The conditions noted are these: DNA incubated 3 hrs with complex and peroxide; ampicillin plates.
The next data set has as its system rats. Particulars: up to 1500 μg/kg diet for up to 24 weeks; cited from earlier work.
The test system of data set [7] is cultured Chinese hamster ovary cells. The conditions noted are these: cited from earlier work.
The mark [8] stands for this setting: plasma, Week 4, fasted rats, 20 μg Cr/kg daily i.v., mean ± SEM.
Setting [9] is: plasma, Week 8, fasted rats, 20 μg Cr/kg daily i.v., mean ± SEM.
Where [10] appears, read: plasma, Week 12, fasted rats, 20 μg Cr/kg daily i.v., mean ± SEM.

These results are taken from patent publication US6149948A, “Method of decreasing plasma cholesterol and triglycerides with a chromium-containing complex” (University of Alabama, priority 1999, dated 2000).

Protocol for DH5α E. coli cells: A reaction mixture containing 10 μg of pUC19, 1.5 mM 1, and 0.900 mM H2 O in 10 mM Tris, pH 8.0 was allowed to react for 3 hours at 25° C. Quench buffer was added, and the sample was immediately loaded onto a 1% agarose gel containing 0.5 μg ml^-1 of ethidium bromide. After electrophoresis in 1×TBE buffer, the band at 3.5 kB was excised from the gel, and the DNA was removed from the gel using a Qiagen gel purification kit. The eluted DNA was gel-quantitated and used without further modification for transformation.
Electrocompetent DH5α E. coli cells were electroporated using 1 μL of 0.1 μg mL^-1 of either trimer-nicked DNA or supercoiled pUC19 plasmid DNA in 50 μL of cells. The E. coli cells were rescued by adding 1 mL of SOC media (20 gL^-1 Bactotryptone, 5 gL^-1 yeast extract, 9 mM NaCl, 20 mM glucose, pH 7.5), followed by incubation at 37° C. for 1 hour. Each cell suspension was diluted 1:100 with SOC media, and 50 μL of each diluted suspension was spread on separate LB-ANM agar plates containing 80 μg mL^-1 X-gal, 100 μM IPTG, and 100 μg mL^-1 ampicillin. The X-gal and IPTG were added to facilitate detection of colonies. The plates were placed in a 37° C. incubator overnight.

As to `CCC(=O)[O-].CCC(=O)[O-].CCC(=O)[O-].CCC(=O)[O-].CCC(=O)[O-].CCC(=O)[O-].O.O.O.[Cr+3].[Cr+3].[Cr+3].[O-2]` [Compound 1, [Cr3 O(O2 CCH2 CH3)6 (H2 O)3]^+], the “stimulation of insulin receptor tyrosine kinase activity” value in [1] is “mimic the ability of LMWCr to stimulate insulin receptor kinase activity”. For the same compound, the “iron concentration of liver” value in the data set with male Sprague Dawley rats [2] is 6.0×10^2 μg/g dry mass. The “toxic effects of supplementation” value in the data set with male Sprague Dawley rats [3] (12 weeks, 20 μg Cr/kg daily i.v.) is listed as “no toxic effects were observed”. Besides, the “Tissue mass, Epididymal fat” value in the data set with male Sprague Dawley rats [3] (after 12 weeks, daily tail vein injection, 20 μg Cr per kg body mass, mean ± SEM, eight rats) is on record as 4.44 + 0.45 grams. Also, in the data set with pUC19 plasmid DNA [4], the “DNA cleavage in the presence of dithiothreitol” value is given as “does not increase the amount of cleavage”. Besides, in the data set on male Sprague Dawley rats [5] (setting [8]), the Glucose turned out to be 168 ± 33 mg/dL, the Insulin was found to be 99.0 ± 3.2 μIU/mL, the Total cholesterol came out at 65.2 ± 3.4 mg/dL and the Triglycerides is listed as 83.3 ± 2.7 mg/dL. Also, in the data set with male Sprague Dawley rats [5] (setting [9]), the Glucose was 75.5 ± 2.9 mg/dL, the Insulin worked out at 43.3 ± 2.1 μIU/mL and the Total cholesterol is 63.8 ± 3.3 mg/dL. In the data set with male Sprague Dawley rats [5] (setting [10]), this compound came in with a Glucose of 68.2 ± 2.8 mg/dL, an HDL cholesterol of 10.7 ± 0.65 mg/dL, an Insulin of 43.0 ± 1.9 μIU/mL and an LDL cholesterol of 25.6 ± 2.4 mg/dL. Also, in the data set on male Sprague Dawley rats [5] (setting [10]), the Total cholesterol is 46.9 ± 2.8 mg/dL and the Triglycerides was found to be 53.2 ± 3.7 mg/dL. Moreover, in the data set with male Sprague Dawley rats [5] (week 12), the “LDL cholesterol concentration less than that of the control” value is listed as approximately 40% and the “total cholesterol concentration less than that of the control” value was 33%. Besides, the “DNA cleavage (literature)” value with pUC19 plasmid DNA [6] was “not to lead to DNA cleavage”. For the same compound, in the data set on DH5α E. coli cells, the “colonies of E. coli transformed with complex-nicked pUC19 versus supercoiled pUC19” value is on record as “the same number of colonies”.

With `CC(=O)[O-].CC(=O)[O-].CC(=O)[O-].CC(=O)[O-].CC(=O)[O-].CC(=O)[O-].O.O.O.[Cr+3].[Cr+3].[Cr+3].[O-2]` [acetate analogue of 1, [Cr3 O(OAc)6 (H2 O)3]^+, reference compound], in the data set on pUC19 plasmid DNA [6] (Cr(pic)3: 120 nM chromium, 5 mM ascorbic acid or thiols, acetate analogue: ascorbate), the “DNA cleavage in the presence of biological reductants (literature)” value is given as “unable to catalyze DNA cleavage in the presence of ascorbate”.

Regarding “chromium(III) tris(picolinate) [Cr(pic)3]”, in the data set with rats, the acute toxic effects entry was “no acute toxic effects”. In addition, the DNA strand breaks result in data set [7] was “lead to DNA strand breaks”.
